Experimental data published in patent US8778966B2, “Quinolinone derivatives as PARP and tank inhibitors” (Janssen Pharmaceutica, NV, priority 2007, dated 2014).

Target: T1, TANK-2 enzyme (Homo sapiens, UniProt Q9H2K2)
T1 construct: made in house
T1 sequence (Q9H2K2 1-1166): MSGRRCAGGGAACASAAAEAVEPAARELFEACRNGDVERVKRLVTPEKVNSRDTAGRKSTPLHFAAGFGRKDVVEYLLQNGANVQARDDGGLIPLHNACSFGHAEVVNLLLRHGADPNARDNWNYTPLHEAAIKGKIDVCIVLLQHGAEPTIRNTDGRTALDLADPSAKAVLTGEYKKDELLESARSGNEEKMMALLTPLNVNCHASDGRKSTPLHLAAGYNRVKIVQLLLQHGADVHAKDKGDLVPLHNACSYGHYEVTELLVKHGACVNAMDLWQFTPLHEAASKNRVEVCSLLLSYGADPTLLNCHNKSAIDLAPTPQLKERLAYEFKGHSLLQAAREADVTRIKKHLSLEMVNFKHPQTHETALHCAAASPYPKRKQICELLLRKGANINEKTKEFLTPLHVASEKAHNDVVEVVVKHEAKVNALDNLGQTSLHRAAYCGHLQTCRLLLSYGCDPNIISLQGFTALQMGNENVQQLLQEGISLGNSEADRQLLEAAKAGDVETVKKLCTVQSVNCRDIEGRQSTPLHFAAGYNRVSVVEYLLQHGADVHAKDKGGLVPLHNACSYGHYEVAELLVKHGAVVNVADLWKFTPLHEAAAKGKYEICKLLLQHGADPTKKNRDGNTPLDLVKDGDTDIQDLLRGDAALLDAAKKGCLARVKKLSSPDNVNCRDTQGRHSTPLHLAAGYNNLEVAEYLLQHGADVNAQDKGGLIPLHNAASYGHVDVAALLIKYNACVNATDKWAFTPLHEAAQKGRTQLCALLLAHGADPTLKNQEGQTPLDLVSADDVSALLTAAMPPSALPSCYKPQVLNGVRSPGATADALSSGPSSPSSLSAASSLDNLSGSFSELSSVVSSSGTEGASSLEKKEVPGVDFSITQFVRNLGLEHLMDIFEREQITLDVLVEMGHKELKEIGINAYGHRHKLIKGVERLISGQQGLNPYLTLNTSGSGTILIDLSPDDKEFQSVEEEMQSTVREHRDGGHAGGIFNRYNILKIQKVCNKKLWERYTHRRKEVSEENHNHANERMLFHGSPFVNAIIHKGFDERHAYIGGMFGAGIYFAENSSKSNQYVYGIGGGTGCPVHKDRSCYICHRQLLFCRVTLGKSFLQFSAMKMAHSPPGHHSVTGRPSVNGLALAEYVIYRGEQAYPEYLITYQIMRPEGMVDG
Assay: In vitro Scintillation Proximity Assay (SPA) for TANK-2 inhibitory activity
Format: biochemical
Settings: read-out: in vitro SPA assay TANK-2 pIC50 (converted)
How it was run: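 TANK-2 (8 μg/ml final) auto-poly(ADP-ribosyl)ation with [3H]-NAD+/NAD donor was run in Ni flash plates in Tris/HCl pH 7.4 buffer with DTT and MgCl2, 120 min at room temperature, then stopped with excess NAD and scintillation-counted. Blank-corrected cpm was expressed as % of enzyme control, and IC50 was linearly interpolated and reported as pIC50.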

Row | Compound | IC50 [nM]
1 | CCc1cc2ccc([C@@](C)(C#N)CN(C)Cc3ccc(C#N)cc3)cc2[nH]c1=O (single isomer, unassigned) [Compound 253] | 200
2 | CCc1cc2ccc(C(C)(C#N)Cc3cccc(-c4cnn(C)c4)c3)cc2[nH]c1=O (centres unmarked) [Compound 17] | 50.1
3 | CCc1cc2ccc(C(C)(C#N)Cc3cccc(-c4ccccc4)c3)cc2[nH]c1=O (centres unmarked) [Compound 18] | 251
4 | CCc1cc2ccc(C(C)(C#N)Cc3cccc(I)c3)cc2[nH]c1=O (centres unmarked) [Compound 19] | 158
5 | CCc1cc2ccc(C(C)(C#N)Cc3cccc(N(C)C)c3)cc2[nH]c1=O (centres unmarked) [Compound 20] | 63.1
6 | CCc1cc2ccc(C(C)(C#N)Cc3cccc(N4CCOCC4)c3)cc2[nH]c1=O (centres unmarked) [Compound 21] | 63.1
7 | CCc1cc2ccc(C(C)(C#N)Cc3cccc(O)c3)cc2[nH]c1=O (centres unmarked) [Compound 22] | 50.1
8 | CCc1cc2ccc(C(C)(C#N)Cc3cccc(OCc4ccccc4)c3)cc2[nH]c1=O (centres unmarked) [Compound 23] | 200
9 | CCc1cc2ccc(C(C)(C#N)Cc3cccc(OCCOC)c3)cc2[nH]c1=O (centres unmarked) [Compound 24] | 79.4
10 | CCC(=O)c1cccc(CC(C)(C#N)c2ccc3cc(C)c(=O)[nH]c3c2)c1 (centres unmarked) [Compound 173] | 1260
11 | CCc1cc2ccc(C(C)(C#N)Cc3cc(C)cc(C#N)c3)cc2[nH]c1=O (centres unmarked) [Compound 174] | 200
12 | CCc1cc2ccc(C(C)(C#N)Cc3cccc(S(F)(F)(F)(F)F)c3)cc2[nH]c1=O (centres unmarked) [Compound 177] | 398
13 | CCc1cc2ccc(C(C)(C#N)Cc3cccc(C4(N)CC4)c3)cc2[nH]c1=O (centres unmarked) [Compound 180] | 158
14 | CCc1cc2ccc(C(C)(C#N)CCCN(C)C(=O)c3ccc(F)cc3)cc2[nH]c1=O (centres unmarked) [Compound 188] | 20
15 | CCc1cc2ccc([C@](C)(C#N)CN(C)Cc3ccc(C#N)cc3)cc2[nH]c1=O [Compound 190] | 251
16 | Cc1cc2ccc(C(C)(C#N)Cc3cccc(Oc4ncccn4)c3)cc2[nH]c1=O (centres unmarked) [Compound 191] | 1580
17 | Cc1cc2ccc(C(C)(C#N)Cc3cccc(Oc4ccccc4)n3)cc2[nH]c1=O (centres unmarked) [Compound 193] | 631
18 | CCc1cc2cc(C)c(C(C)(C#N)Cc3cccc(C#N)n3)cc2[nH]c1=O (centres unmarked) [Compound 208] | 39.8
19 | CCc1cc2ccc(C(C)(C#N)Cc3ccc(Cl)nc3Cl)cc2[nH]c1=O (centres unmarked) [Compound 212] | 126
20 | COc1cc2ccc(C(C)(C#N)Cc3cccc(C#N)n3)cc2[nH]c1=O (centres unmarked) [Compound 218] | 1000
21 | CCc1cnc(OCCC(C)(C#N)c2ccc3cc(CC)c(=O)[nH]c3c2)nc1 (centres unmarked) [Compound 222] | 100
22 | CCc1cc2ccc(C(C)(C#N)CCOc3nccc(OC)n3)cc2[nH]c1=O (centres unmarked) [Compound 223] | 794

Row | Compound | IC50 [nM]
23 | CCc1cc2ccc(C(C)(C#N)Cc3ccc(OC)nc3Cl)cc2[nH]c1=O (centres unmarked) [Compound 224] | 200
24 | CCc1cc2ccc(C(C)(C#N)Cc3ccc(Cl)nc3OC)cc2[nH]c1=O (centres unmarked) [Compound 225] | 126
25 | CCc1cc2ccc(C(C)(C#N)Cc3cccc(N4CCCC4)n3)cc2[nH]c1=O (centres unmarked) [Compound 226] | 200
26 | Cc1cc2ccc(C(C)(C#N)Cc3cccc(C#N)n3)cc2[nH]c1=O (centres unmarked) [Compound 227] | 316
27 | CCc1cc2ccc(C(C)(C#N)Cc3cc(OC)cc(OC)n3)cc2[nH]c1=O (centres unmarked) [Compound 232] | 63.1
28 | CCc1cc2ccc(C(C)(C#N)Cc3cc(C#N)cc4c3OCC4)cc2[nH]c1=O (centres unmarked) [Compound 236] | 31.6
29 | CCc1cc2ccc(C(C)(C#N)Cc3cc4ccccc4nn3)cc2[nH]c1=O (centres unmarked) [Compound 238] | 251
30 | Cc1cc2ccc([C@@](C)(C#N)[C@@H]3CCc4cc(Br)ccc43)cc2[nH]c1=O [Compound 240] | 6310
31 | Cc1cc2ccc([C@@](C)(C#N)[C@H]3CCc4cc(Br)ccc43)cc2[nH]c1=O [Compound 241] | 6310
32 | Cc1cc2ccc([C@](C)(C#N)[C@@H]3CCc4cc(Br)ccc43)cc2[nH]c1=O [Compound 242] | 7940
33 | Cc1cc2ccc(C(C)(C#N)C3CCc4cc(Br)ccc43)cc2[nH]c1=O (centres unmarked) [Compound 244] | 7940
34 | Cc1cc2ccc(C(C)(C#N)C3CCc4c(Br)cccc43)cc2[nH]c1=O (centres unmarked) [Compound 248] | 1260
35 | Cc1cc2ccc(C(C)(C#N)C3CCc4ccc(Br)cc43)cc2[nH]c1=O (centres unmarked) [Compound 249] | 2510
36 | Cc1cc2ccc(C(C)(C#N)C3CCc4ccc(C#N)cc43)cc2[nH]c1=O (centres unmarked) [Compound 250] | 398
37 | C=C(C)c1cccc(CC(C)(C#N)c2ccc3cc(CC)c(=O)[nH]c3c2)c1 (centres unmarked) [Compound 254] | 251
38 | CCc1cc2ccc(C(C#N)(CC)Cc3cccc(C#N)c3)cc2[nH]c1=O (centres unmarked) [Compound 265] | 100
39 | CCc1cc2ccc(C(C)(C#N)Cc3cc(F)cc(C#N)c3)cc2[nH]c1=O (centres unmarked) [Compound 266] | 25.1
40 | CCc1cc2ccc(C(C#N)(CC)Cc3cccc(F)c3)cc2[nH]c1=O (centres unmarked) [Compound 270] | 316
41 | Cc1cc2ccc(C(C)(C#N)CCCCOc3ccccc3)cc2[nH]c1=O (centres unmarked) [Compound 272] | 501
42 | Cc1cc2ccc(C(C)(C#N)Cc3cc(F)cc(F)c3)cc2[nH]c1=O (centres unmarked) [Compound 282] | 794
43 | CCc1cc2ccc(C(C)(C#N)Cc3cc(C)cc(Br)c3)cc2[nH]c1=O (centres unmarked) [Compound 284] | 501
44 | CCc1cc2ccc(C(C)(C#N)CN(C)CCc3cn(C)c4ccccc34)cc2[nH]c1=O (centres unmarked) [Compound 303] | 126

Next, values leading:

Row | IC50 [nM] | Compound
45 | 794 | Cc1cc2ccc(C(C)(C#N)C3CCc4c(C#N)cccc43)cc2[nH]c1=O (racemic) [Compound 393]
46 | 2510 | CCc1cc2ccc(C(C)(C#N)C3CCc4ccc(Br)cc43)cc2[nH]c1=O (single isomer, unassigned) [Compound 380]
47 | 1260 | CCc1cc2ccc(C(C)(C#N)C3CCc4ccc(Br)cc43)cc2[nH]c1=O (single isomer, unassigned) [Compound 381]
48 | 631 | Cc1cc2ccc([C@](C)(C#N)C3CCc4cccnc43)cc2[nH]c1=O (single isomer, unassigned) [Compound 388]
49 | 1000 | CCc1cc2ccc([C@](C)(C#N)[C@H]3CCOc4ccccc43)cc2[nH]c1=O (single isomer, unassigned) [Compound 394]
50 | 501 | CCc1cc2ccc([C@@](C)(C#N)[C@H]3CCOc4ccccc43)cc2[nH]c1=O (single isomer, unassigned) [Compound 395]
51 | 158 | CCc1cc2ccc([C@](C)(C#N)C[C@H]3CCc4ccccc4O3)cc2[nH]c1=O (single isomer, unassigned) [Compound 396]
52 | 1000 | CCc1cc2ccc(C(C#N)(CC)Cc3cccc(OC)c3)cc2[nH]c1=O (centres unmarked) [Compound 287]
53 | 1000 | Cc1cc2ccc(C(C)(C#N)Cc3cccc(Oc4ccccn4)c3)cc2[nH]c1=O (centres unmarked) [Compound 304]
54 | 100 | CCOc1cc(N(C)C)nc(CC(C)(C#N)c2ccc3cc(CC)c(=O)[nH]c3c2)n1 (centres unmarked) [Compound 312]
55 | 100 | CCOc1cc(C#N)nc(CC(C)(C#N)c2ccc3cc(CC)c(=O)[nH]c3c2)n1 (centres unmarked) [Compound 315]
56 | 126 | CCc1cc2ccc(C(C#N)(CC)Cc3nc(C#N)cc(OC)n3)cc2[nH]c1=O (centres unmarked) [Compound 316]
57 | 158 | CCc1cc2ccc(C(C#N)(CC)Cc3nc(OC)cc(OC)n3)cc2[nH]c1=O (centres unmarked) [Compound 321]
58 | 20 | CCc1cc2ccc(C(C)(C#N)Cc3ccnc(C#N)c3)cc2[nH]c1=O (centres unmarked) [Compound 324]
59 | 398 | CCc1cc2ccc(C(C)(C#N)Cc3cc(C)nc(Cl)c3)cc2[nH]c1=O (centres unmarked) [Compound 326]
60 | 20 | CCc1cc2ccc(C(C)(C#N)Cc3cc(C)nc(C#N)c3)cc2[nH]c1=O (centres unmarked) [Compound 328]
61 | 398 | CCc1cc2ccc(C(C)(C#N)Cc3ccnc(F)c3)cc2[nH]c1=O (centres unmarked) [Compound 330]
62 | 79.4 | CCc1cc2ccc(C(C)(C#N)Cc3cccc(F)n3)cc2[nH]c1=O (centres unmarked) [Compound 331]
63 | 79.4 | CCc1cc2ccc([C@](C)(C#N)Cc3cc(F)cc(F)c3)cc2[nH]c1=O [Compound 333]
64 | 794 | CCc1cc2ccc(C(C)(C#N)Cc3ccc(C(F)(F)F)nc3C)cc2[nH]c1=O (centres unmarked) [Compound 340]
65 | 79.4 | CCc1cc2ccc(C(C)(C#N)Cc3ccnc(Cl)c3)cc2[nH]c1=O (centres unmarked) [Compound 341]
